Source: patent US6825348B2, “Antiviral compounds” (Academia Sinica, priority 2002, dated 2004)

Biological target: PRPP synthetase (UniProt P0A717)
Assay: PRPP synthetase reaction, conversion to diphosphates and inhibition of AMP phosphorylation
Format: biochemical
Procedure: Enzymatic Conversion of Acyclic Nucleoside Phosphonates and Nucleotide 5′-Monophosphate Analog to Their Antivirally Active Diphosphates (Triphosphate Equivalents). Substrate affinities of acyclic nucleoside phosphonates 4, 20, 21, and dinucleotide analog 24 for PRPP synthetase as well as their inhibitory effect against the enzyme were evaluated according to the established procedures. See, e.g., Balzarini et al. (1991) J. Biol. Chem. 266: 8686-8689 and references cited therein. The assays were then terminated after 4 h by the addition of MeOH. HPLC on an anion-exchange Partisphere column was used to analyze the formation of […] 21pp, PMEApp, 4pp, 20pp, and 24pp.

[1] = conversion to diphosphate by PRPP synthetase

Compound | substrate affinity for PRPP synthetase, times less than that of PMEA 4 | Vmax [1] | Vmax (phosphorylation by PRPP synthetase, no unit in text)
Nc1ncnc2ncn(CCOCP(=O)(O)O)c12 [Compound 20, 7-[2-(Phosphonomethoxy)ethyl]adenine] | 4 times | 0.013 μmol/unit/h | –
Nc1ncnc2c1ncn2CCOCP(=O)(O)O [PMEA 4, 9-[2-(phosphonomethoxy)ethyl]adenine, reference compound] | – | 0.096 μmol/unit/h | –
Nc1ncnc2c1ncn2[C@@H]1O[C@H](COP(=O)(O)O)[C@@H](O)[C@H]1O [AMP 21, adenosine 5′-monophosphate, reference compound] | – | 14.270 μmol/unit/h | 14
